Assay results: the supplement of paper PMC4862054

How the values were obtained:
Details in all cases: incubation time: 72 h
[1] = test system: HCC1599; experiment: normalised response (% of control), CellTox Green; higher = less cell death (100 = DMSO, 0 = benzethonium chloride kill control)
Outline: (§1)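 CellTox Green fluorescence (485/520 nm) and, after 10 min at room temperature, CellTiter-Glo luminescence were read from breast cancer cell lines incubated 72 h in 384-well plates. Cells were seeded as 20 µl suspension onto compound at 5 concentrations in 10-fold steps over a 10,000-fold range chosen per compound. Each plate was normalised to 0.1 % DMSO (100) and a positive kill control (0). Values are normalised signals, one per concentration.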

[2] = test system: CAL-120; experiment: as above
Outline: as §1

[3] = test system: BT-549; experiment: as above
Outline: as §1

[4] = test system: CAL-51; experiment: as above
Outline: as §1

[5] = test system: MDA-MB-468; experiment: as above
Outline: as §1

[6] = test system: Hs578T; experiment: as above
Outline: as §1

[7] = test system: MDA-MB-453; experiment: as above
Outline: as §1

[8] = test system: BT-474; experiment: as above
Outline: as §1

[9] = test system: MDA-MB-231; experiment: as above
Outline: as §1

[10] = test system: HDQ-P1; experiment: as above
Outline: as §1

[11] = test system: DU-4475; experiment: as above
Outline: as §1

[12] = test system: HCC1143; experiment: as above
Outline: as §1

[13] = test system: MFM-223; experiment: as above
Outline: as §1

[14] = test system: HCC1937; experiment: as above
Outline: as §1

[15] = test system: MDA-MB-436; experiment: as above
Outline: as §1

[16] = test system: HCC1599; experiment: normalised response (% of control), CellTiter-Glo; higher = more viable cells (100 = DMSO, 0 = benzethonium chloride kill control)
Protocol: (§2)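 DSRT, 72 h incubation, CellTox Green / CellTiter-Glo readout. Signal is normalised to DMSO and benzethonium chloride controls. Value is the normalised response at dose 3.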

[17] = test system: CAL-120; experiment: as above
Protocol: as §2

[18] = test system: BT-549; experiment: as above
Protocol: as §2

[19] = test system: CAL-51; experiment: as above
Protocol: as §2

[20] = test system: MDA-MB-468; experiment: as above
Protocol: as §2

[21] = test system: Hs578T; experiment: as above
Protocol: as §2

[22] = test system: MDA-MB-453; experiment: as above
Protocol: as §2

[23] = test system: BT-474; experiment: as above
Protocol: as §2

[24] = test system: MDA-MB-231; experiment: as above
Protocol: as §2

[25] = test system: HDQ-P1; experiment: as above
Protocol: as §2

[26] = test system: DU-4475; experiment: as above
Protocol: as §2

[27] = test system: HCC1143; experiment: as above
Protocol: as §2

[28] = test system: SK-BR-3; experiment: as above
Protocol: as §2

[29] = test system: MFM-223; experiment: as above
Protocol: as §2

[30] = test system: MCF-10A; experiment: as above
Protocol: as §2

[31] = test system: HCC1937; experiment: as above
Protocol: as §2

[32] = test system: CAL-85-1; experiment: as above
Protocol: as §2

[33] = test system: CAL-148; experiment: as above
Protocol: as §2

[34] = test system: MDA-MB-436; experiment: as above
Protocol: as §2

[35] = test system: MCF-10A; experiment: normalised response (% of control), CellTox Green; higher = less cell death (100 = DMSO, 0 = benzethonium chloride kill control)
Outline: as §1

[36] = test system: CAL-85-1; experiment: as above
Outline: as §1

[37] = test system: CAL-148; experiment: as above
Outline: as §1

SMILES	normalised response [1] [%]	normalised response [2] [%]	normalised response [3] [%]	normalised response [4] [%]	normalised response [5] [%]	normalised response [6] [%]	normalised response [7] [%]	normalised response [8] [%]	normalised response [9] [%]	normalised response [10] [%]	normalised response [11] [%]	normalised response [12] [%]	normalised response [13] [%]	normalised response [14] [%]	normalised response [15] [%]	normalised response [16] [%]	normalised response [17] [%]	normalised response [18] [%]	normalised response [19] [%]	normalised response [20] [%]	normalised response [21] [%]	normalised response [22] [%]	normalised response [23] [%]	normalised response [24] [%]	normalised response [25] [%]	normalised response [26] [%]	normalised response [27] [%]	normalised response [28] [%]	normalised response [29] [%]	normalised response [30] [%]	normalised response [31] [%]	normalised response [32] [%]	normalised response [33] [%]	normalised response [34] [%]	normalised response [35] [%]	normalised response [36] [%]	normalised response [37] [%]
COc1cc(O)c2c(c1)/C=C/C[C@H](O)[C@H](O)C(=O)/C=C\C[C@H](C)OC2=O [(5Z)-7-Oxozeaenol] (100 nM)	108	104	91.1	109	107	79.4	102	104	109	85.9	96.9	89.1	105	105	104	91.2	101	76.2	103	92.9	98.9	108	95.4	104	84.1	76.1	99	108	103	84.8	92.4	88.5	101	104	–	–	–
CNC(=O)c1cccc(-c2ccc3c(N4CCOC[C@@H]4C)nc(N4CCOC[C@@H]4C)nc3n2)c1 [AZD2014] (100 nM)	93	101	101	49.6	–	107	98.7	102	121	106	103	105	103	–	118	119	79.4	73.9	69.4	94.7	93.6	80.8	87.1	86.9	70.5	97.1	92.3	64.7	75.1	97.3	80.8	87.6	85.6	82	51.3	104	83.9
CN(C)CCOc1ccc(/C(=C(/CCCl)c2ccccc2)c2ccccc2)cc1 [Toremifene] (100 nM)	99.1	102	92.8	110	127	99.7	106	101	55.6	74.3	102	70.6	92.6	–	–	102	105	101	100	99.1	104	107	102	105	98.2	104	103	102	103	103	99.7	94.6	109	100	71.6	98.3	84.1
COC(=O)c1ccc2c(c1)NC(=O)/C2=C(\Nc1ccc(N(C)C(=O)CN2CCN(C)CC2)cc1)c1ccccc1 [Nintedanib] (100 nM)	95.1	100	101	109	82.3	–	101	102	92.7	83.3	103	106	98.9	108	93	114	98.7	108	103	92.2	103	109	96.8	105	95	100	101	98.3	95.8	93.4	94.9	98.7	106	102	102	98.1	102
Cc1ccc(NC(=O)c2ccc(CN3CCN(C)CC3)cc2)cc1Nc1nc(-c2cccnc2)cs1 [Masitinib] (100 nM)	101	98.9	91	104	116	106	103	95.3	91.5	87.1	99.3	105	91.6	–	73.4	93.8	97.7	107	83.5	99.8	102	106	101	111	109	105	102	99	106	91.6	103	101	106	107	68.2	99.3	95.1
